Structures are written as SMILES. Read-outs that look alike come from different tables or passages of the source.

One experiment has as its target T1, Human 11b-HSD1 (Homo sapiens, UniProt P28845).
T1 construct: expressed in transfected cells
The experiment is described as follows: Inhibition of cortisone-to-cortisol conversion in CHO-K1 cells over-expressing human 11b-HSD1 (HTRF cortisol assay). It is filed as cell-based. The following applies: CHO-K1 cells over-expressing human 11b-HSD1, 160 nM cortisone, 3 hours, 37° C. The text has this:
(§1) cDNA (human: Accession No. U12978.2; mouse: Accession No. NM_008288.2) coding the full-length amino acid sequence of 11β-HSD1 in a human and a mouse was incorporated into pMSCVpuro (from Clontech. Co. Ltd.), a vector of expressing a mammalian cell for the production of a retrovirus, and the resulting product was introduced into a GP2-293 cell (from Clontech Co. Ltd.), a retrovirus packing cell line together with pVSV-G vector (from Clontech Co. Ltd.) by using a Lipotamine plus reagent (from Invitrogen Co. Ltd.) in accordance with the method set forth in the appendix (by using HTRF cortisol assay kit from Cisbio assays Co., Ltd., catalog No. 62CO2PEB) and stabilized for 48 hours. Thereafter, viruses being obtained from those cells were used to infect CHO-K1 cell (from Korean Cell Line Bank, KCLB No. 10061) and in 24 hours, the cells were treated with 10 μg/ml pumycin (from Sigma Co. Ltd.) for two weeks to produce a stabilized cell system wherein each 11β-HSD1 in humans or in mice was over-expressed. When the cells being maintained, 5 μg/ml of puromycin was put into the medium and used (RPMI (Gibco), 37° C.). • Reference material: The EMBO Journal (2008) 27, 642-653
(§2) The obtained cells with 11b-HSD1 in a human and a mouse being over-expressed were sub-cultured in a 96-well plate with a cell number being 3×10^4 cells per well and stabilized for 24 hours [RPMI (Gibco), at 37° C., as being used in 5 days after thawing]. After a medium as diluted with DMSO including 160 nM of cortisone (from Sigma Co. Ltd.) and a test compound at a different concentration was put into each well in an amount of 200 ul, the well was cultured in a cell cultivator at 37° C. for 3 hours. 10 ul of the cultured solution was put into a 384 well plate and the amount of cortisol as generated was measured using a cortisol kit (from Cisbio international Co. Ltd, HTRF assay) in accordance with the method set forth in the appended manual.
(§3) As a control group, 160 nM of cortisone and 1% of DMSO were put into a corresponding well. The ground value was obtained from a well including only 160 nM of cortisone and 1% of DMSO without cells just like the control group. The calculation for a % inhibition level was made following the manual as appended. • Reference material: The Journal of Steroid Biochemistry and Molecular Biology, Volume 104, Issues 3-5, May 2007, Pages 123-129 • Bioorganic & Medicinal Chemistry Letters Volume 19, Issue 10, 15 May 2009, Pages 2674-2678
(§4) Like the analyzing method as stated above, the efficacy of inhibiting 11b-HSD1 was calculated as IC50 and the results are shown in Table 1: […]
(In general: Time-resolved FRET reads energy transfer from a long-lived donor to a nearby acceptor.)

The target of another experiment is T2, Mouse 11b-HSD1 (Mus musculus, UniProt P50172).
T2 construct: expressed in transfected cells
Kind of experiment: Inhibition of cortisone-to-cortisol conversion in CHO-K1 cells over-expressing mouse 11b-HSD1 (HTRF cortisol assay). It is filed as cell-based. The following applies: CHO-K1 cells over-expressing mouse 11b-HSD1, 160 nM cortisone, 3 hours, 37° C.
Source text: as §1, §2, §3, §4

The target in a further experiment is T3, 11b-HSD1 (Mus musculus, UniProt P50172).
T3 construct: the tissues in abdominal fat and the liver were obtained; from tissue; host or cells: abdominal fat and liver of C57Bl/6 mice
Kind of experiment: Ex vivo PD assay: 11b-HSD1 inhibition in abdominal fat and liver tissue after oral administration to mice. The note with it: mouse C57B1/6, oral, vs vehicle group; for inhibition at 10 mg/kg: 2 hr; for inhibition at 20 mg/kg: 6 hr. How it is done: The prepared compound was orally administered to a mouse (C57B1/6, orient 8 week old, about 25 g, male) and in a proper amount of time (2 hours, 6 hours, 12 hours, 16 hours, and 24 hours), the mouse was sacrificed and around 30 to 40 mg of the tissues in abdominal fat and the liver were obtained. To 500 ul of a medium (RPMI, gibco) including 1 μM of cortisone (from Sigma Co. Ltd.) and 400 μM of NADPH (from Sigma Co. Ltd) was added the tissue as obtained (30-40 mg), which then reacted in a cell cultivator at 37° C. for 3 hours. After 50 ul of the reacted solution was taken and diluted with DMEM medium at a volume ratio of 1/10, the amount of cortisol being generated was measured by using a cortisol kit (assay designs Co. Ltd., ELISA kit) in accordance with the method set forth in the appended manual. From the results being measured, the degree of the inhibition was obtained by the conversion in comparison with the vehicle group (vehicle: 5% DMSO+5% cremophor in dw, the amount being proportionate to the body weight, i.e., the administration was made at the same volume as the drug being introduced). • Reference material: Published Aug. 15, 2005//JEM vol. 202 no. 4 517-527 The Rockefeller University Press % inhibition={(the amount of cortisol of the vehicle group−the amount of the cortisol of the group with the compound being administered)/(the amount of cortisol of the vehicle group)}×100
According to the above analyzing method, the efficacy of inhibiting 11b-HSD1 of the test compound in the target organ was calculated as % inhibition values, which are shown in Table 2 and Table 3.

The mark [1] stands for this setting: abdominal fat, read-out: 11b-HSD1 % inhibition in the fat.
Setting [2] is: liver, read-out: 11b-HSD1 % inhibition in the liver.

T1 sequence (P28845 whole entry): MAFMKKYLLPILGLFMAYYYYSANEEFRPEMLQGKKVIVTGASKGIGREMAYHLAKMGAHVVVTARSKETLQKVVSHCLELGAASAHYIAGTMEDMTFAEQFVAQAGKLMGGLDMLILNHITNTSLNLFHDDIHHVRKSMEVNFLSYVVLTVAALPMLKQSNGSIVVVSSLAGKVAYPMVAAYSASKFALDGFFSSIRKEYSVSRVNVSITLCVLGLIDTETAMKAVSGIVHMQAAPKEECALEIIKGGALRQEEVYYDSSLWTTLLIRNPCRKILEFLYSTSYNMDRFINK
T2 sequence (P50172 whole entry): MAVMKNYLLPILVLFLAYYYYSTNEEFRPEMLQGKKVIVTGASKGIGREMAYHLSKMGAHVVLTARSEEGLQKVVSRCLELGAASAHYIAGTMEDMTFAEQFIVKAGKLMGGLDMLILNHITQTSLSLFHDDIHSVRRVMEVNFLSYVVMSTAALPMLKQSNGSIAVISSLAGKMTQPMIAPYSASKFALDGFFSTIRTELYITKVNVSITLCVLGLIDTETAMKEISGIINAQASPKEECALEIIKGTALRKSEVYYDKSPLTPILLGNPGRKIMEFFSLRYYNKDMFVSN
T3 sequence (P50172 whole entry): as above

Consider `NC(=O)[C@]12CC3CC(C1)[C@@H](NC(=O)c1ccc(-c4ccccc4)o1)C(C3)C2` [Example 1, N-(5-carbamoyl-2-adamantyl)-5-phenylfuran-2-carboxamide], for which the IC50 at Human 11b-HSD1 and at Mouse 11b-HSD1 was below 100 nM each time. Also, the inhibition at 10 mg/kg came to 91% on 11b-HSD1 (setting [1]) and 85% on 11b-HSD1 (setting [2]). Moreover, the inhibition at 20 mg/kg at 11b-HSD1 (setting [1]) is 83%; on 11b-HSD1 (setting [2]), 70%.

With `NC(=O)[C@]12CC3CC(C1)[C@@H](NC(=O)c1ccc(-c4ccc(Cl)cc4)o1)C(C3)C2` [Example 2, N-(5-carbamoyl-2-adamantyl)-5-(4-chlorophenyl)furan-2-carboxamide], the IC50 on Human 11b-HSD1 was below 100 nM; against Mouse 11b-HSD1, 100 to 500 nM. Also, the inhibition at 10 mg/kg at 11b-HSD1 (setting [1]) came out at 84%; on 11b-HSD1 (setting [2]), 68%. Besides, the inhibition at 20 mg/kg at 11b-HSD1 (setting [1]) was 85%; at 11b-HSD1 (setting [2]) it was 44%.

With `NC(=O)[C@]12CC3CC(C1)[C@@H](NC(=O)c1ccc4ccccc4n1)C(C3)C2` [Example 18, N-(5-carbamoyl-2-adamantyl)quinoline-2-carboxamide], the IC50 against Human 11b-HSD1 and on Mouse 11b-HSD1 was below 100 nM each time. Further, the inhibition at 10 mg/kg on 11b-HSD1 (setting [1]) was 58%; at 11b-HSD1 (setting [2]) it was 62%. Further, the inhibition at 20 mg/kg on 11b-HSD1 (setting [1]) worked out at 65%; at 11b-HSD1 (setting [2]), 61%.

Consider `NC(=O)[C@]12CC3CC(C1)[C@@H](NC(=O)c1cccc4cccnc14)C(C3)C2` [Example 19, N-(5-carbamoyl-2-adamantyl)quinoline-8-carboxamide], for which the IC50 against Human 11b-HSD1 and on Mouse 11b-HSD1 was below 100 nM each time. Besides, the inhibition at 10 mg/kg is 51% on 11b-HSD1 (setting [1]) and 50% on 11b-HSD1 (setting [2]).

For `CCCOc1cccc(C(=O)N[C@H]2C3CC4CC2C[C@](C(N)=O)(C4)C3)n1` [Example 46, N-(5-carbamoyl-2-adamantyl)-6-propoxypyridine-2-carboxamide], the IC50 at Human 11b-HSD1 and on Mouse 11b-HSD1 was below 100 nM throughout.

`NC(=O)[C@]12CC3CC(C1)[C@@H](NC(=O)c1cccc(OCc4ccccc4)n1)C(C3)C2` [Example 47, N-(5-carbamoyl-2-adamantyl)-6-phenylmethoxypyridine-2-carboxamide]: the IC50 at Human 11b-HSD1 is below 100 nM; at Mouse 11b-HSD1, 100 to 500 nM.

As to `CCCOc1cccc2ccc(C(=O)N[C@H]3C4CC5CC3C[C@](C(N)=O)(C5)C4)nc12` [Example 49, N-(5-carbamoyl-2-adamantyl)-8-propoxyquinoline-2-carboxamide], the values for the IC50 on Human 11b-HSD1 and against Mouse 11b-HSD1 were below 100 nM and 100 to 500 nM, respectively.

Regarding `COc1cccc2ccc(C(=O)N[C@H]3C4CC5CC3C[C@](C(N)=O)(C5)C4)nc12` [Example 50, N-(5-carbamoyl-2-adamantyl)-8-methoxyquinoline-2-carboxamide], the IC50 is below 100 nM at Human 11b-HSD1 and 100 to 500 nM against Mouse 11b-HSD1.

Regarding `CCOc1cccc2ccc(C(=O)N[C@H]3C4CC5CC3C[C@](C(N)=O)(C5)C4)nc12` [Example 51, N-(5-carbamoyl-2-adamantyl)-8-ethoxyquinoline-2-carboxamide], the IC50 on Human 11b-HSD1 and at Mouse 11b-HSD1 was below 100 nM each time.

With `CC(C)Oc1cccc2ccc(C(=O)N[C@H]3C4CC5CC3C[C@](C(N)=O)(C5)C4)nc12` [Example 52, N-(5-carbamoyl-2-adamantyl)-8-propan-2-yloxyquinoline-2-carboxamide], the figures for the IC50 against Human 11b-HSD1 and at Mouse 11b-HSD1 were below 100 nM and 100 to 500 nM, respectively.

As to `NC(=O)[C@]12CC3CC(C1)[C@@H](NC(=O)c1ccc4cccc(OCc5ccccc5)c4n1)C(C3)C2` [Example 53], the IC50 at Human 11b-HSD1 was below 100 nM; on Mouse 11b-HSD1, above 500 nM.

With `CC(C)COc1cccc2ccc(C(=O)N[C@H]3C4CC5CC3C[C@](C(N)=O)(C5)C4)nc12` [Example 54, N-(5-carbamoyl-2-adamantyl)-8-(2-methylpropoxy)quinoline-2-carboxamide], the IC50 at Human 11b-HSD1 was below 100 nM; against Mouse 11b-HSD1, above 500 nM.

On to `CCC(C)Oc1cccc2ccc(C(=O)N[C@H]3C4CC5CC3C[C@](C(N)=O)(C5)C4)nc12` (some centres unmarked) [Example 56, 8-butan-2-yloxy-N-(5-carbamoyl-2-adamantyl)quinoline-2-carboxamide], for which the IC50 on Human 11b-HSD1 was below 100 nM; at Mouse 11b-HSD1 it was 100 to 500 nM.

For the compound `CN(C)c1cccc(C(=O)N[C@H]2C3CC4CC2C[C@](C(N)=O)(C4)C3)n1` [Example 57, N-(5-carbamoyl-2-adamantyl)-6-(dimethylamino)pyridine-2-carboxamide], the IC50 against Human 11b-HSD1 and against Mouse 11b-HSD1 was below 100 nM each time.

Turning to `NC(=O)[C@]12CC3CC(C1)[C@@H](NC(=O)c1cccc(N4CCCCC4)n1)C(C3)C2` [Example 58, N-(5-carbamoyl-2-adamantyl)-6-piperidin-1-yl-pyridine-2-carboxamide], the IC50 at Human 11b-HSD1 and at Mouse 11b-HSD1 was below 100 nM in each case.

Take `CCN(CC)c1cccc(C(=O)N[C@H]2C3CC4CC2C[C@](C(N)=O)(C4)C3)n1` [Example 59, N-(5-carbamoyl-2-adamantyl)-6-(diethylamino)pyridine-2-carboxamide]: the IC50 on Human 11b-HSD1 and against Mouse 11b-HSD1 was below 100 nM throughout.

For the compound `CCCNc1cccc(C(=O)N[C@H]2C3CC4CC2C[C@](C(N)=O)(C4)C3)n1` [Example 60, N-(5-carbamoyl-2-adamantyl)-6-(propylamino)pyridine-2-carboxamide], the IC50 at Human 11b-HSD1 and against Mouse 11b-HSD1 was below 100 nM each time.

As for `NC(=O)[C@]12CC3CC(C1)[C@@H](NC(=O)c1cccc(N4CCc5ccccc5C4)n1)C(C3)C2` [Example 61, N-(5-carbamoyl-2-adamantyl)6-(3,4-dihydro-1H-isoquinolin-2-yl)pyridine-2-carboxamide], the half-inhibitory concentration (IC50) on Human 11b-HSD1 and against Mouse 11b-HSD1 was below 100 nM each time.

With `NC(=O)[C@]12CC3CC(C1)[C@@H](NC(=O)c1cccc(N4CCC(c5ccccc5)CC4)n1)C(C3)C2` [Example 62, N-(5-carbamoyl-2-adamantyl)-6-(4-phenylpiperidin-1-yl)pyridine-2-carboxamide], the figures for the IC50 against Human 11b-HSD1 and against Mouse 11b-HSD1 were below 100 nM and 100 to 500 nM, respectively.

Turning to `Cc1cccc(C(=O)N[C@H]2C3CC4CC2C[C@](C(N)=O)(C4)C3)[n+]1[O-]` [Example 63, N-(5-carbamoyl-2-adamantyl)-6-methyl-1-oxidopyridine-1-ium-2-carboxamide], the IC50 was 100 to 500 nM at Human 11b-HSD1 and above 500 nM at Mouse 11b-HSD1.

Turning to `CN(C)c1cccc(C(=O)N[C@H]2C3CC4CC2C[C@](C(N)=O)(C4)C3)[n+]1[O-]` [Example 65, N-(5-carbamoyl-2-adamantyl)-6-(dimethylamino)-1-oxidopyridin-1-ium-2-carboxamide], the values for the concentration for half-maximal inhibition (IC50) on Human 11b-HSD1 and at Mouse 11b-HSD1 were below 100 nM and 100 to 500 nM, respectively.

Usually IC50 stands for the point on the concentration scale where inhibition reaches its midpoint. Read a low IC50 as greater potency in that assay. In general, inhibition refers to the relative decrease from the control value, in per cent.

The values above are taken from patent publication US9233957B2, “5-carbamoyl-adamantan-2-yl amide derivatives, pharmaceutically acceptable salts thereof and preparation process thereof” (SK BIOPHARMACEUTICALS CO., LTD., priority 2011, dated 2016).
